# Laboratory results: ChEMBL document CHEMBL1201862, “PubChem BioAssay data set” (2004)
# Activity calls are given as the source filed them.
# Columns and labels:
# [1] = HEp-2 cell cytotoxicity, dose response, cytotoxicity control for RSV inhibitor project, HTS (AID 2410); type: functional; conditions: human respiratory syncytial virus
# [2] = Luminescence Cell-Based Dose Confirmation HTS to Identify Activators of 5'UTR Stem-Loop Driven Alpha-Synuclein mRNA Translation in H4 Neuroglioblastoma Cells. [Related pubchem assays: 1829 (Project Summary), 1814 (Primary HTS)]; type: functional
# [3] = Luminescence Cell-Based Dose Response HTS to Identify Activators of Luciferase Translation or Activity in H4 […] Cells. [Related pubchem assays: 1829 (Project Summary), 1814 (Primary HTS)]; type: functional
# [4] = system: H4; assay: Luminescence Cell-Based Dose Response HTS to Identify Activators of 5'UTR Stem-Loop Driven Prion Protein mRNA Translation in H4 Neuroglioblastoma Cells. [Related pubchem assays: 1829 (Project Summary), 1814 (Primary HTS)]; type: functional; conditions: Homo sapiens
# [5] = system: Vero; assay: cells; type: functional, cell-based; conditions: Chlorocebus sabaeus
# [6] = system: Vero; assay: cells; type: functional; conditions: Chlorocebus sabaeus
# [7] = cells
# [8] = target: DNA dC->dU-editing enzyme APOBEC-3A (Homo sapiens, UniProt P31941); assay: Dose Response confirmation of small molecule APOBEC3A DNA Deaminase Inhibitors via a fluorescence-based single-stranded DNA deaminase assay. [Related pubchem assays (depositor defined):AID493011, AID493024]; type: functional
# Sequence of DNA dC->dU-editing enzyme APOBEC-3A (P31941 whole entry): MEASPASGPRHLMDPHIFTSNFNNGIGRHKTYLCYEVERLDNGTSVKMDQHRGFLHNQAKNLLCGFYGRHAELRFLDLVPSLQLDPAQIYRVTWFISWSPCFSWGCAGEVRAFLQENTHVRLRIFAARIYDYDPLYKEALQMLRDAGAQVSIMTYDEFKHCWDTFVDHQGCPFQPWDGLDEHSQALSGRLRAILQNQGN
# [9] = target: DNA dC->dU-editing enzyme APOBEC-3G (Homo sapiens, UniProt Q9HC16); type: functional;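 also: Dose-response counterscreen measuring inhibition of APOBEC3G DNA deaminase activity, run while confirming APOBEC3A inhibitors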
# Sequence of DNA dC->dU-editing enzyme APOBEC-3G (Q9HC16 whole entry): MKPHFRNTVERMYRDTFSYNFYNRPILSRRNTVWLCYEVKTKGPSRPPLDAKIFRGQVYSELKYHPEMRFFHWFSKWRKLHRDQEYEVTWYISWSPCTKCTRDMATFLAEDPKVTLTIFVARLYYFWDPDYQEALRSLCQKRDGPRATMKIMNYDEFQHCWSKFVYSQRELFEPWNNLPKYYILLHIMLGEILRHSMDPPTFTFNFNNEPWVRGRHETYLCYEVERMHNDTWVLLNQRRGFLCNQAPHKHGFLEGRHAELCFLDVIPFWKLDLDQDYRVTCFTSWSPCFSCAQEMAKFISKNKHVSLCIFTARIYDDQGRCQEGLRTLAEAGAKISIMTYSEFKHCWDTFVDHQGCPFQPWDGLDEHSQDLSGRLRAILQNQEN
# [10] = growth suppression of PTEN-null colon cells, dose response, cell-based, HCT116 PTEN knockout (AID 1047); type: functional;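 also: HCT116 colon tumor cells with PTEN knocked out; cells exposed to compound for 60 hours before readout; potency for loss of cell viability measured by luminescence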
# [11] = growth suppression of beta-catenin-knockout colon cells, dose response, cell-based, HCT116, human colon tumor (AID 1045); type: functional;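 also: HCT116 colon tumor cells with beta catenin knocked out; cells exposed to compound for 60 hours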
# [12] = target: Voltage-dependent T-type calcium channel subunit alpha-1H (Homo sapiens, UniProt O95180); type: functional;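 also: channel activity triggered by adding a high calcium stimulation buffer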
# Sequence of Voltage-dependent T-type calcium channel subunit alpha-1H (O95180 whole entry): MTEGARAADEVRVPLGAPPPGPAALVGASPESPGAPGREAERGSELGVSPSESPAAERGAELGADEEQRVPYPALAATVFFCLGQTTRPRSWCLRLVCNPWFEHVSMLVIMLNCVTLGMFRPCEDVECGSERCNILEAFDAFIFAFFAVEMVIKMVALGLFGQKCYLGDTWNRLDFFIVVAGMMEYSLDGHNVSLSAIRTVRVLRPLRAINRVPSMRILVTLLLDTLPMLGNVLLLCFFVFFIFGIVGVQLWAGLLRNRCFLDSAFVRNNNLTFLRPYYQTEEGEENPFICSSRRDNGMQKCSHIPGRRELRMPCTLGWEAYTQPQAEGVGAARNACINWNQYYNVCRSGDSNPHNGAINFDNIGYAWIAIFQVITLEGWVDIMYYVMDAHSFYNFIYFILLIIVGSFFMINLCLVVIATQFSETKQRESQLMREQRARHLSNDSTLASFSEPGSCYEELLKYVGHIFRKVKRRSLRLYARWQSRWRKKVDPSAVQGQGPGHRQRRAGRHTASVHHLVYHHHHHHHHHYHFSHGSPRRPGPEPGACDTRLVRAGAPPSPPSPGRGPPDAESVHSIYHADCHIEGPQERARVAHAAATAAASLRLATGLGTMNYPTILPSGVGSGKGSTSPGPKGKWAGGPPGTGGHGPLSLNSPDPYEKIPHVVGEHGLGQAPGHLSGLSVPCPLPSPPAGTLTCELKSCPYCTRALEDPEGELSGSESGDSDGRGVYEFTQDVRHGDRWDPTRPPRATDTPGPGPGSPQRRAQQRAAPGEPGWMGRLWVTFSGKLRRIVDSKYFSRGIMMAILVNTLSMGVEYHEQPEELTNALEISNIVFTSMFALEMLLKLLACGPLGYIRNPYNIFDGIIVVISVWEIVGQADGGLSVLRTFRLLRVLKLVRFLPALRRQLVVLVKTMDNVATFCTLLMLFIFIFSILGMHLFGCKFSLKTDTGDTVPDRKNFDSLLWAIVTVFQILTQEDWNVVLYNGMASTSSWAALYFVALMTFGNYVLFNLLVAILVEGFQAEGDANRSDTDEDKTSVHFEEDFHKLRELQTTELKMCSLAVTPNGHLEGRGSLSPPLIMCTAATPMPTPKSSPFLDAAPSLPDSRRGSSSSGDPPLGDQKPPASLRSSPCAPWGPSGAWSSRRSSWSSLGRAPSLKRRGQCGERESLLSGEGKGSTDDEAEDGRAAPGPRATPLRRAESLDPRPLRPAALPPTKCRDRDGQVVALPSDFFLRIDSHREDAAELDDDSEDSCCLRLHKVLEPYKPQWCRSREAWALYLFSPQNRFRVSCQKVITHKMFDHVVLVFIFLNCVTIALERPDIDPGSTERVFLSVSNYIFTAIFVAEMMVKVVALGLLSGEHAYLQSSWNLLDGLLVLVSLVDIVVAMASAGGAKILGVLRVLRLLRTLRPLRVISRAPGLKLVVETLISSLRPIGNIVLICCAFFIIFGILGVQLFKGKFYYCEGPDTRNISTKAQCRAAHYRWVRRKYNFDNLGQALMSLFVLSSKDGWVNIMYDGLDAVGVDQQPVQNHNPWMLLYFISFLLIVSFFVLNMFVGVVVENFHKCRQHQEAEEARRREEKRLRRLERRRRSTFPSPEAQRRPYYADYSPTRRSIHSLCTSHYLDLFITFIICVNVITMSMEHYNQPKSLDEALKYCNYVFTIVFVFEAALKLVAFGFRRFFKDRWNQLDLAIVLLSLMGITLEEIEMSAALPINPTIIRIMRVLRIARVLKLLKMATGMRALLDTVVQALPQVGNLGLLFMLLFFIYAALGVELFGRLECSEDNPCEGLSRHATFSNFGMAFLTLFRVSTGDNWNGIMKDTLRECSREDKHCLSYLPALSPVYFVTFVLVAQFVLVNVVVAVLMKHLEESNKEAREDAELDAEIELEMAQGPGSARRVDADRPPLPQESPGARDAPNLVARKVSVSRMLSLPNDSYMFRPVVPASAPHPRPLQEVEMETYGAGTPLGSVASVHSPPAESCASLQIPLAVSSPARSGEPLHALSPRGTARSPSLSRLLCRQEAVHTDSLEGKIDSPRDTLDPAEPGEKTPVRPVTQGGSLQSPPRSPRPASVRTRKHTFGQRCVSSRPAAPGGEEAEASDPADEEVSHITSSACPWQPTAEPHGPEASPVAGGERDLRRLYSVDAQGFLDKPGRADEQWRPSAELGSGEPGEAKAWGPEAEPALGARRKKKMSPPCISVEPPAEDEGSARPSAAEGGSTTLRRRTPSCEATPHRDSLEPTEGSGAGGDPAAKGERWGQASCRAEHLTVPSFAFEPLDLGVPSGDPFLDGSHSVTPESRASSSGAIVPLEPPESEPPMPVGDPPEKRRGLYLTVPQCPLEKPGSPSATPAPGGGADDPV
# [13] = target: SUMO-activating enzyme (Homo sapiens, UniProt Q9UBT2); assay: SUMOylation inhibitor hit validation, confirmation, SUMOylation inhibitor project, biochemical, AlphaScreen (AID 2018); type: functional
# [14] = target: G-protein coupled receptor 55 (Homo sapiens, UniProt Q9Y2T6); assay: GPR55 antagonists blocking LPI-driven arrestin recruitment, primary screen, imaging, U2OS, beta-arrestin-GFP, LPI agonist (AID 2013); type: functional;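 also: antagonist potency measured as reduced agonist-driven arrestin aggregation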
# Sequence of G-protein coupled receptor 55 (Q9Y2T6 whole entry): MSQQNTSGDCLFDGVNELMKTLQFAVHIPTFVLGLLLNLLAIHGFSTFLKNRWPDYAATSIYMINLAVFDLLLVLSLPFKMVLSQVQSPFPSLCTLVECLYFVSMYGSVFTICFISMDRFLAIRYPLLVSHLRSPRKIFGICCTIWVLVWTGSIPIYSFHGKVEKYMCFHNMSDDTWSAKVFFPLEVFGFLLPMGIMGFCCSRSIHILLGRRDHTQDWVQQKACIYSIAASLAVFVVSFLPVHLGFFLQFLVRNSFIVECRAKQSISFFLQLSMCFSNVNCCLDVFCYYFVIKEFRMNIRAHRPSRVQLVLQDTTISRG
# [15] = system: INS1; assay: beta cell apoptosis inhibitors, cytokine rescue, dose response, luminescence, retest (AID 449756); type: functional, cell-based; conditions: Rattus norvegicus;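 also: cell death triggered by IL-1 beta plus TNF-alpha plus IFN-gamma mixture; protective hits raise ATP signal compared with cytokine alone wells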
# [16] = target: Dual specificity tyrosine-phosphorylation-regulated kinase 1A (Rattus norvegicus, UniProt Q63470); type: biochemical, Homo sapiens
# [17] = target: T1, Mucolipin-3 (Homo sapiens, UniProt Q8TDD5); assay: Dose response cell-based high-throughput screening assay for agonists of the transient receptor potential channel ML3 (TRPML3). [Related pubchem assays: 1526, 1424, 1448 ]; type: functional
# T1 sequence (Q8TDD5 whole entry): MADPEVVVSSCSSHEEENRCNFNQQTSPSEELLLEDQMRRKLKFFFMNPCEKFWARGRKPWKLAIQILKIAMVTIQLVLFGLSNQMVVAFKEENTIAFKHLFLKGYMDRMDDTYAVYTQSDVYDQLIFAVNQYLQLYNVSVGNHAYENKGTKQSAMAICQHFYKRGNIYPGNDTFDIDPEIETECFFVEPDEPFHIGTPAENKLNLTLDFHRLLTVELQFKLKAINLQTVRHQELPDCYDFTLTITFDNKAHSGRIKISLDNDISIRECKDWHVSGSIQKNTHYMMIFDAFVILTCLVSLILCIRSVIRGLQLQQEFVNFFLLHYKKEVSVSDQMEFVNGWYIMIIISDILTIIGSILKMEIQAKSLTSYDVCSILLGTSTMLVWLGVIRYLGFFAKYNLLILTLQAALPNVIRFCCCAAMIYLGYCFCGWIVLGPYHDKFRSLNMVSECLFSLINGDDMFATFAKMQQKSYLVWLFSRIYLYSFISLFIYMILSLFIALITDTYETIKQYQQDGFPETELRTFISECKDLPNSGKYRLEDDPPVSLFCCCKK
# [18] = target: Ion channel NompC (Danio rerio, UniProt Q7T1G6); assay: Fluorescence counterscreen assay for TRPML3 agonists: dose response cell-based high-throughput screening assay to identify agonists of the transient receptor potential channel N1 (TRPN1). [Related pubchem assays: 1526, 1424, 1448 ]; type: functional
# Sequence of Ion channel NompC (Q7T1G6 whole entry): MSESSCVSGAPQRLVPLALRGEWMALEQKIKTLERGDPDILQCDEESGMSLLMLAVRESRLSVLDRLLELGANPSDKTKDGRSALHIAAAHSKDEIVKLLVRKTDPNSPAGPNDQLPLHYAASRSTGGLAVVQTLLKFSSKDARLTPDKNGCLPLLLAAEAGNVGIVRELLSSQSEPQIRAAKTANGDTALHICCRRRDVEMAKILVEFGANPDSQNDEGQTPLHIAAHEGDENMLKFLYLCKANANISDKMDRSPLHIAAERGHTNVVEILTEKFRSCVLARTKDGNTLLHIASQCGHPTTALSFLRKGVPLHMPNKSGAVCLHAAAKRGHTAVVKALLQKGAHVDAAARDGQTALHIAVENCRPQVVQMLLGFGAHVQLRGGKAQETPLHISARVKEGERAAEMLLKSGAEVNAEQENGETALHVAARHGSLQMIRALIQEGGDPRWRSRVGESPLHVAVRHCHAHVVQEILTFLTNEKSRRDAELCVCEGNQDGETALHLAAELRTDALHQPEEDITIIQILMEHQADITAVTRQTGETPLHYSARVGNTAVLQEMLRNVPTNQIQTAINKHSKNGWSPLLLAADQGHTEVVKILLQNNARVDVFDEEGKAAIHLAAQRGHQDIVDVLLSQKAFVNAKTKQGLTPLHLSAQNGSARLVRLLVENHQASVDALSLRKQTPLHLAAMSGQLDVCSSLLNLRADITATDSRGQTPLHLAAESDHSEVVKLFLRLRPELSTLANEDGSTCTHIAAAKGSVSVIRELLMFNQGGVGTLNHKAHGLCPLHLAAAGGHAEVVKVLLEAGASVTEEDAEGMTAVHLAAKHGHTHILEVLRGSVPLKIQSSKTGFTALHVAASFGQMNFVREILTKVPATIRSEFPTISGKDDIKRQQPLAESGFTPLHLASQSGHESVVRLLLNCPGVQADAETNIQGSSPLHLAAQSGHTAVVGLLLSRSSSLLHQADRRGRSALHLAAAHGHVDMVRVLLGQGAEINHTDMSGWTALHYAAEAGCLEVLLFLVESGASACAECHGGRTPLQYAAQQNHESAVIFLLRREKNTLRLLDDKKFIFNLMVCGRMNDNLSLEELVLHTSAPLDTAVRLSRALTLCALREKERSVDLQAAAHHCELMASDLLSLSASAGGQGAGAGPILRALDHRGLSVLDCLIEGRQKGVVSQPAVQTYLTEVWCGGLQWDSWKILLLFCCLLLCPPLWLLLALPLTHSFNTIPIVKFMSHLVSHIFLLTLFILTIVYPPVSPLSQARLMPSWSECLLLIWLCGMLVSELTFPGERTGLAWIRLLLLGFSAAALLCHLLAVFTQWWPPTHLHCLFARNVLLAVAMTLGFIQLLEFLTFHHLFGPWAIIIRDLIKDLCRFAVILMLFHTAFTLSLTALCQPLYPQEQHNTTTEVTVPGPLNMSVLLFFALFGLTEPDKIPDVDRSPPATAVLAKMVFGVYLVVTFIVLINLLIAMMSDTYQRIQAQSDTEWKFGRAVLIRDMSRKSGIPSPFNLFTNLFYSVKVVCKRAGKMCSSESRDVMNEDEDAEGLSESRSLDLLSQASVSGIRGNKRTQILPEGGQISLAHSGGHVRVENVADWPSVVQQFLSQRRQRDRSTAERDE
# [19] = Luminescence Cell-Based Dose Retest to Confirm Inhibitors of Cancer Stem Cells. [Related pubchem assays (depositor defined):AID2717, AID2721]; type: functional; conditions: Homo sapiens
# [20] = target: T2, fMet-Leu-Phe receptor (Homo sapiens, UniProt P21462); assay: FPR ligands, dose response (AID 519); type: functional
# T2 sequence (P21462 whole entry): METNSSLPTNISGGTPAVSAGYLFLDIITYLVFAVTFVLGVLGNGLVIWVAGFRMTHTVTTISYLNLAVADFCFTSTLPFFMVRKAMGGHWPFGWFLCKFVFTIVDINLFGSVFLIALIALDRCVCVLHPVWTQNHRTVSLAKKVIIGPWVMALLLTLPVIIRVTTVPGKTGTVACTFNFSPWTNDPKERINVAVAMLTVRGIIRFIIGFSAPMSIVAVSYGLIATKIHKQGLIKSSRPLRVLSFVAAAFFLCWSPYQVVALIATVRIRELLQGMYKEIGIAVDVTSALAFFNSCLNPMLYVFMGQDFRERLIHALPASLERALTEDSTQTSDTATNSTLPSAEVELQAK
# [21] = cells; type: functional, cell-based
# [22] = cells; type: functional, cell-based; remark: listed apart in the source
# [23] = THP-1 cell cytotoxicity, dose response, cytotoxicity control for non-replicating M. tuberculosis project (AID 489025); type: functional
# [24] = HepG2 cell cytotoxicity, dose response, cytotoxicity control for non-replicating M. tuberculosis project (AID 489018); type: functional; conditions: Mycobacterium tuberculosis
# [25] = Vero E6 cell cytotoxicity, dose response, cytotoxicity control for non-replicating M. tuberculosis project, secondary assay (AID 492998); type: functional, VeroE6; conditions: Vero C1008
# [26] = cells; type: functional
# [27] = system: H9c2; assay: cells; type: functional, cell-based; conditions: Rattus norvegicus, H9c2, Myocardium;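 also: confirmatory concentration-response retest of ultra-high-throughput screening hits for modulation of myocardial damage; cell death induced by hydrogen peroxide oxidative stress; compound pretreatment for 60 min then peroxide exposure for 2 h; potency is for protecting the cells against peroxide damage rather than for killing them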
# [28] = target: T3, Calpain-2 catalytic subunit (Sus scrofa, UniProt P43367); assay: pig calpain II inhibitor potency, dose response, biochemical, fluorogenic peptide substrate (AID 1420); type: functional
# T3 sequence (P43367 whole entry): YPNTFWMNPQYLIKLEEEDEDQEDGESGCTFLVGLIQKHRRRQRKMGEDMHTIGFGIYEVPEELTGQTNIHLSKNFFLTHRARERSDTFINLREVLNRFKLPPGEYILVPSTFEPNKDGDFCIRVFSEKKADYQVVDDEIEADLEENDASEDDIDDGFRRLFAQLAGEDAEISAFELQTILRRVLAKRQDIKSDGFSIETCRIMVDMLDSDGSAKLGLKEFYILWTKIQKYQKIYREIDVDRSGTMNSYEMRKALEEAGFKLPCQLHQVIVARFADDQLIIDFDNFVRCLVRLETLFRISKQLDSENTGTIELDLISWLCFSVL
# [29] = target: T4, Rac GTPase-activating protein 1 (Homo sapiens, UniProt Q9H0H5); assay: MgcRacGAP GTPase-activating activity inhibitors, confirmation, biochemical, ADP Hunter fluorescence, primary and confirmatory (AID 624330); type: functional
# T4 sequence (Q9H0H5 whole entry): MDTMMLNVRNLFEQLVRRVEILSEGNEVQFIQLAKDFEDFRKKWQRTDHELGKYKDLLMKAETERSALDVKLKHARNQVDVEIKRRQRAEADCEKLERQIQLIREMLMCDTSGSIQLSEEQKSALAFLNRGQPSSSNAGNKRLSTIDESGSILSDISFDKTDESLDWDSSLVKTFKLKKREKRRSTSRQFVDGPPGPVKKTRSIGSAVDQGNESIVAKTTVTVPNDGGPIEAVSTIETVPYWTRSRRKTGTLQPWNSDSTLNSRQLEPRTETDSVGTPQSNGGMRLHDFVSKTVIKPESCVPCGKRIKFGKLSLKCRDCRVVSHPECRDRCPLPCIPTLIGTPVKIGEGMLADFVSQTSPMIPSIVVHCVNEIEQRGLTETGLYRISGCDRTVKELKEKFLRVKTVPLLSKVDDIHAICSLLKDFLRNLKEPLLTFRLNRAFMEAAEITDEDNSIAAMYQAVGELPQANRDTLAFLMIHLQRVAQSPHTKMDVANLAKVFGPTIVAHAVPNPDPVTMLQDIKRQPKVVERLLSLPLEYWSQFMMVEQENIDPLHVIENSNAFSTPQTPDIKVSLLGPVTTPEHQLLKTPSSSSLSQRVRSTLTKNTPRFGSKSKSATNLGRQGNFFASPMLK
compound,measurement,setting,value
Cn1c(C(=O)NCc2cccs2)cc2oc3ccccc3c21,CC50,[1],3.9 µM (active)
same,EC50,[2],> 120 µM (not active)
same,EC50,[3],2.92 µM (active)
same,EC50,[4],> 120 µM (not active)
same,IC50,[5],1.32 µM (active)
same,CC50,[6],> 25 µM (active)
same,IC50,[7],18.4 µM (active)
C[N+](C)(C)CCCNC(=O)c1ccc(C=NO)nc1,IC50,[8],2.7 µM (active)
same,IC50,[9],4.16 µM (active)
CC[n+]1c(/C=C/C=C/N(C(C)=O)c2ccccc2)sc2ccccc21,EC50,[10],20.8 µM (active)
same,EC50,[11],19.7 µM (active)
same,EC50,[12],2.21 µM (active)
COc1ccc(-c2nnc(SCC(=O)Nc3cc(C)on3)[nH]2)cc1,IC50,[13],> 100 µM (inactive)
Cc1ccccc1-c1cc(C(=O)Nc2sc(C)c(C)c2C(N)=O)c2ccccc2n1,IC50,[14],2.76 µM (active)
same,AC50,[15],5.87 µM (active)
CC12CCC(C(=O)Nc3nc4ccc(Br)cc4s3)(OC1=O)C2(C)C (centres undefined),AC50,[16],1.36 µM (active)
O=C(c1ccccc1F)N(NC(=O)C(O)(c1ccccc1)c1ccccc1)c1ccccc1,EC50,[17],10.4 µM (not active)
same,EC50,[18],> 29.9 µM (not active)
O=C(N=Nc1c(O)[nH]c2ccc([N+](=O)[O-])cc12)c1ccccc1[N+](=O)[O-],IC50,[7],26.2 µM (active)
Cc1nn(-c2nc3ccccc3s2)c(C)c1Oc1ccccc1O,CC50,[1],20.6 µM (active)
same,AC50,[19],5.5 µM (active)
same,IC50,[5],11.7 µM (active)
same,CC50,[6],> 25 µM (active)
same,Ki,[20],> 66.7 µM (inactive)
same,IC50,[7],15.6 µM (active)
CCN(CCCNC(=O)CCc1nc(-c2ccc(OC)cc2)no1)c1cccc(C)c1,EC50,[21],> 350 µM (not active)
same,EC50,[22],> 350 µM (not active)
same,EC50,[12],4.41 µM (active)
CCN(c1ccccc1)S(=O)(=O)c1ccc(Cl)c(NC(=O)CSc2n[nH]c(N)n2)c1,CC50,[1],44.2 µM (active)
same,IC50,[7],7.78 µM (active)
CC(=O)c1ccc(C(=O)Nc2nnc(-c3ccc(Cl)cc3)o2)cc1,CC50,[23],7.9 µM (active)
same,CC50,[24],13.1 µM (active)
same,CC50,[25],8.62 µM (active)
same,IC50,[26],0.47 µM (active)
same,IC50,[27],> 79 µM (inactive)
COc1ccc([N+](=O)[O-])cc1CSc1ccccn1,IC50,[8],8.44 µM (active)
same,IC50,[9],7.41 µM (active)
CCCc1n(CC(O)COC2CCCCC2)c2ccccc2[n+]1CC (centres undefined),IC50,[8],3.26 µM (active)
same,IC50,[9],3.93 µM (active)
Cc1csc(NC(=O)CSc2nc3ccccc3s2)n1,EC50,[12],7.68 µM (active)
Cc1cc(C(C)(C)C)oc1C(=O)N(CC(=O)NC1CCCC1)Cc1ccccc1Cl,EC50,[17],> 29.9 µM (not active)
same,IC50,[28],2.28 µM (not active)
same,EC50,[18],> 29.9 µM (not active)
CC(C)Oc1ccc(/C=N/NC(=O)C(CSCc2ccccc2)NC(=O)c2ccc([N+](=O)[O-])cc2)cc1 (centres undefined),EC50,[17],0.342 µM (active)
same,EC50,[18],> 29.9 µM (not active)
CCc1ccccc1/N=C1/S/C(=C/c2ccccc2OCC(=O)N2CCOCC2)C(=O)N1C,IC50,[14],2.71 µM (active)
COc1cc(/C=C2\Oc3cc(O)ccc3C2=O)ccc1O,AC50,[16],0.641 µM (active)
same,IC50,[29],26 µM (active)
COc1ccc(/C=C/C(=O)O)cc1 [4-METHOXYCINNAMIC ACID],AC50,[16],21 µM (active)
